Test results taken from patent US20100028266A1, “Composition and methods for treating allergic response” (Alpha Synergy Development. Inc., priority 2008, published 2010).

Assays:
[1] = test system: patients with chronic red eyes; experiment: Example 5: chronic red eyes, one eye each treatment, patient satisfaction assessment; assay type: in vivo, human
Description: The treatment was through drops twice a day for three to five weeks. At the end, patient satisfaction assessment was conducted.

[2] = test system: eyes of a patient with an ocular condition (baseline redness 4/4); settings: brimonidine at 0.01%, 0.02%, […] (left eye) compared with tetrahydrozoline 0.05%, oxymetazoline […], naphazoline […] (right eye)
Excerpt: In an average clinical situation, baseline redness is at 1-1.5/4.

[3] = test system: eyes of a patient with an ocular condition of moderate hyperemia; experiment: FIGS. 5A-C: reversal of pre-induced rebound hyperemia; assay type: in vivo, human; settings: brimonidine at […] given after VISINE Original
Excerpt: FIG. 5A is a baseline visual appearance of two eyes of a patient with an ocular condition.

SMILES: Brc1c(N=C2NCCN2)ccc2nccnc12.O=C(O)C(O)C(O)C(=O)O [brimonidine, 5-bromo-6-(2-imidazolidinylideneamino)quinoxaline L-tartrate]
- patients who preferred the treatment ([1]; brimonidine at […] in one eye, Naphcon-A in the other, twice a day for three to five weeks): 42%
- patient-reported redness ([1]; brimonidine at […], drops twice a day for three to five weeks): All patients reported reduced redness
- scleral whitening brightening effects [2]: significant scleral whitening brightening effects
- effect on VISINE Original induced rebound hyperemia, right eye [3]: reversing the VISINE Original® induced rebound hyperemia
